Laboratory results published in US8269010B2, “3-amino-pyridine derivatives for the treatment of metabolic disorders” (Piramal Healthcare Limited, priority 2006, dated 2012).

Key:
[1] = system: insulin resistant adipocytes (3T3 L1); assay: In vitro model exhibiting insulin resistance (IR assay): 14C-2-deoxyglucose uptake; format: cell-based; conditions: glucose uptake; for fold induction at 10 µM: Mus musculus, dexamethasone-induced insulin resistant 3T3 L1 adipocytes, test compound 10 μM/mL, vehicle = 1.0, cut off 1.50 fold, read-out: Fold activity (fold activity over vehicle); for % of Rosiglitazone (comparison with Rosiglitazone): insulin resistant 3T3 L1 adipocytes, test compound 10 μM vs Rosiglitazone 0.1 μM
Protocol: The assay was designed as in the reference, British Journal of Pharmacology, 130, 351-58, 2000, the disclosure of which is incorporated by reference for the teaching of the assay. The solution of test compound (10 μM/mL) was prepared in DMSO. […] Differentiation into adipocytes was induced by the known methods as described below. (See, also, J. Biol. […] 3T3 L1 fibroblasts were seeded in 24- or 6-well plates at a density of 0.5−2×10^4 cells/well and were allowed to reach maximal confluency. The confluent fibroblasts were exposed to culture medium for 2 days. […] The mature adipocytes were exposed to dexamethasone, 100 nM added in ethanol, in culture medium and incubated for 2 days. […] The test compound was also present during this period. After 3-4 hours, the medium was aspirated and replaced with Kreb's Ringer phosphate (KRP) buffer at pH 7.4 and with human/porcine insulin, 200 nM. The cells were incubated for 30 minutes at 37° C. […] After exactly 5 minutes, the plates were transferred to ice trays and medium was rapidly aspirated. The cell layer was washed twice with ice-cold phosphate buffered saline, (PBS), pH 7.4. […] Non-specific glucose uptake was assayed in wells exposed to cytochalasin B, inhibitor of glucose transport. […] Statistical analysis was performed using unpaired t-test.

Mouse PPARγ = target: T1, Mouse PPARγ (Mus musculus, UniProt P37238); assay: Mouse PPARγ assay (TransAM PPARγ ELISA, 3T3-L1 fibroblasts); format: cell-based; conditions: test compound 50 μM, 72 hrs
T1 construct: endogenous in cells; host or cells: 3T3-L1 fibroblasts
T1 sequence (P37238 1-505): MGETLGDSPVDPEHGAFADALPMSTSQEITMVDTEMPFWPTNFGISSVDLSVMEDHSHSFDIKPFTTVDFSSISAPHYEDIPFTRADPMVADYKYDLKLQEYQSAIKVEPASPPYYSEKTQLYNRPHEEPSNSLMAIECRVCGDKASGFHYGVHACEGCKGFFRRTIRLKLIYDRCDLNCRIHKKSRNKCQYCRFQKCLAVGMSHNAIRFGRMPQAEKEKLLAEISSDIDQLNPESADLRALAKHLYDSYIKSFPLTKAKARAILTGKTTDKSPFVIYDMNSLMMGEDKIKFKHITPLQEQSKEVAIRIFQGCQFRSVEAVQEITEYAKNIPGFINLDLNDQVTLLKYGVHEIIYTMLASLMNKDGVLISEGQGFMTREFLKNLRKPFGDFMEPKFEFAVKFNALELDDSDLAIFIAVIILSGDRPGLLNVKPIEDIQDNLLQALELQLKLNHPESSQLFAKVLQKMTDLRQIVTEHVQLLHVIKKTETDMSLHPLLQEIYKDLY
Protocol: The assay was designed as in the reference, Blood, 104(5), 1361-8, 2004, the disclosure of which is incorporated by reference for the teaching of the assay.
3T3-L1 fibroblasts were seeded in 6-well plates at a density of 4×10^4 cells/well and cultured in DMEM containing 10% calf serum. After 4-5 days, when the cells become confluent, each of test compound was added (from a 20 mM stock in DMSO) to the final concentration of 50 μM in DMEM supplemented with 10% FCS. […] The plates were incubated for 72 hrs at 37° C. in a CO2 incubator with fresh medium containing test substances added after first 48 hrs. After 72 hrs, the medium was removed; the cell layer was washed and processed for the PPARγ assay as per the instruction of the manufacturer (Active Motif, North America, California, USA). PPARγ activation was determined using 96-well ELISA assay as per the instruction manual (TransAM PPARγ. Active Motif, Cat 0.40196). Assay Readout was absorbance output from spectrophotometer for the mouse PPARγ assay. Luminescence data output was recorded for the human PPARγ assay.

[2] = system: genetically diabetic db/db BL/6J mice; assay: Screening in db/db BL/6J mice: reduction of plasma glucose levels; format: in vivo; conditions: 10 days
Protocol: The protocol was designed as in references. • 1.
The screening of compounds was based on their ability to reduce the plasma glucose levels in genetically diabetic db/db BL/6J mice.
Male db/db mice (obtained from the Animal House of Nicholas Piramal Research Centre, Goregaon, Mumbai, India) were used for this study (body weight in the range of 30-40 g and age is 6-8 weeks) and were kept eight per cage in individually ventilated cages at controlled temperature (22±1° C.) and humidity (45±5%). Food and water were provided ad libitum during their laboratory stay, except for four hours fasting prior to blood sample collection. 12 hours light and dark cycle was followed during the whole study period.
After 4 hours fasting blood samples were collected from mice. Mice showing plasma glucose levels between 300 to 500 mg/dl were divided in groups (8-10 per group) such that the mean plasma glucose levels and variation within the group, for each group, is nearly same. After grouping, mice in respective groups received treatment with 0.5% CMC vehicle, standard compound or test compounds for 10 days.
After 4 hours fasting, mice were anaesthetized using isoflurane (inhalation anesthetic), and blood samples were collected through the retro orbital plexus. Collected blood samples were centrifuged at 7000 rpm for 10 minutes at 4° C.; Separated plasma was used for estimation of plasma glucose using diagnostic kits (Diasys, Germany). Plasma glucose levels of treated groups were normalized with control group using the following formula, which accounted for the changes in control group.
Formula used for normalization was *:{1−[…]}×100.

Row | PPARγ activity (% of rosiglitazone) (Mouse PPARγ) [%] | SMILES | fold induction at 10 µM [1] | % of Rosiglitazone (comparison with Rosiglitazone) [1] [%] | Normalization with control (plasma glucose) ([2]; 150 mpk od) | Normalization with control (plasma glucose) ([2]; 50 mpk bid)
1 |  | Cc1ccc(S(=O)(=O)Nc2cnc(Oc3cc4ccccc4cn3)c(Cl)c2)cc1Cl [Example 3, 3-Chloro-N-(5-chloro-6-(isoquinolin-3-yloxy)pyridin-3-yl)-4-methylbenzenesulfonamide] | 2.3 ± 0.16 | 52 ± 6.5 |  | 
2 |  | N#Cc1ccc(S(=O)(=O)Nc2cnc(Oc3cc4ccccc4cn3)c(Cl)c2)cc1 [Example 5, N-(5-Chloro-6-(isoquinolin-3-yloxy)pyridin-3-yl)-4-cyanobenzenesulfonamide] | 2.41 ± 0.12 | 55.1 ± 4.8 |  | 
3 |  | O=S(=O)(Nc1cnc(Oc2cc3ccccc3cn2)c(Cl)c1)c1ccc(Cl)cc1F [Example 13, 4-Chloro-N-(5-chloro-6-(isoquinolin-3-yloxy)pyridin-3-yl)-2-fluorobenzenesulfonamide] | 1.4 ± 0.07 | 19.5 ± 3.51 |  | 
4 | 0 | O=S(=O)(Nc1cnc(Oc2cc3ccccc3cn2)c(Cl)c1)c1ccc(F)cc1Cl [Example 15, 2-Chloro-N-(5-chloro-6-(isoquinolin-3-yloxy)pyridin-3-yl)-4-fluorobenzenesulfonamide] | 1.7 ± 0.02 | 45.25 ± 1.04 |  | 
5 | 18.85 | Cc1ccc(S(=O)(=O)Nc2cnc(Oc3cc4ccccc4cn3)c(Cl)c2)cc1 [Example 16, N-(5-Chloro-6-(isoquinolin-3-yloxy)pyridin-3-yl)-4-methylbenzenesulfonamide] | 1.6 ± 0.13 | 38.47 ± 7.98 |  | 
6 | 12.57 | O=S(=O)(Nc1cnc(Oc2cc3ccccc3cn2)c(Cl)c1)c1ccc(Cl)c(Cl)c1 [Example 17, 3,4-Dichloro-N-(5-chloro-6-(isoquinolin-3-yloxy)pyridin-3-yl)benzenesulfonamide] | 1.26 ± 0.02 | 21.20 ± 1.5 |  | 
7 |  | O=S(=O)(Nc1cnc(Oc2cc3ccccc3cn2)c(Cl)c1)c1ccc(OC(F)(F)F)cc1 [Example 18, N-(5-Chloro-6-(isoquinolin-3-yloxy)pyridin-3-yl)-4-(trifluoromethoxy)benzene-sulfonamide] | 1.77 ± 0.1 | 65 |  | 
8 |  | COc1ccc(OC)c(S(=O)(=O)Nc2cnc(Oc3cc4ccccc4cn3)c(Cl)c2)c1 [Example 19, N-(5-Chloro-6-(isoquinolin-3-yloxy)pyridin-3-yl)-2,5-dimethoxybenzenesulfonamide] | 1.67 ± 0.13 | 50 ± 10.12 |  | 
9 |  | O=S(=O)(Nc1cnc(Oc2cc3ccccc3cn2)c(Cl)c1)c1ccc(C(F)(F)F)cc1Cl [Example 20, 2-Chloro-N-(5-chloro-6-(isoquinolin-3-yloxy)pyridin-3-yl)-4(trifluoromethyl)benzene sulfonamide] | 2.4 ± 0.68 | 36.7 ± 0.96 |  | 
10 |  | COc1ccc(S(=O)(=O)Nc2cnc(Oc3cc4ccccc4cn3)c(Cl)c2)cc1OC [Example 22, N-(5-Chloro-6-(isoquinolin-3-yloxy)pyridin-3-yl)-3,4-dimethoxybenzenesulfonamide] | 1.76 ± 0.58 | 15.8 ± 1.8 |  | 
11 |  | COc1ccc(S(=O)(=O)Nc2cnc(Oc3cc4ccccc4cn3)c(Cl)c2)cc1 [Example 24, N-(5-Chloro-6-(isoquinolin-3-yloxy)pyridin-3-yl)-4-methoxybenzenesulfonamide] | 1.8 ± 0.32 | 46.2 ± 23.8 | Inactive | 
12 |  | O=S(=O)(Nc1cnc(Oc2cnc3ccccc3c2)c(Cl)c1)c1ccc(Cl)cc1Cl [Example 27, 2,4-Dichloro-N-(5-chloro-6-(quinolin-3-yloxy)pyridin-3-yl)benzenesulfonamide] | 2.01 ± 0.23 | 57 ± 15.64 |  | 
13 |  | Cc1ccc(S(=O)(=O)Nc2cnc(Oc3cnc4ccccc4c3)c(Cl)c2)cc1 [Example 28, N-(5-Chloro-6-(quinolin-3-yloxy)pyridin-3-yl)-4-methylbenzenesulfonamide] | 2.6 ± 0.17 | 71.77 ± 7.48 |  | 
14 |  | O=S(=O)(Nc1cnc(Oc2cnc3ccccc3c2)c(Cl)c1)c1ccc(Cl)c(Cl)c1 [Example 29, 3,4-Dichloro-N-(5-chloro-6-(quinolin-3-yloxy)pyridin-3-yl)benzenesulfonamide] | 2.01 ± 0.09 | 76 ± 6.11 |  | 
15 | 8.18 | COc1ccc(S(=O)(=O)Nc2cnc(Oc3cnc4ccccc4c3)c(Cl)c2)cc1OC [Example 30, N-(5-Chloro-6-(quinolin-3-yloxy)pyridin-3-yl)-3,4-dimethoxybenzenesulfonamide] | 1.84 ± 0.02 |  |  | 76.2 ± 19.2
16 |  | O=S(=O)(Nc1cnc(Oc2cnc3ccccc3c2)c(Cl)c1)c1ccc(C(F)(F)F)cc1Cl [Example 33, 2-Chloro-N-(5-chloro-6-(quinolin-3-yloxy)pyridin-3-yl)-4-(trifluoromethyl)benzene-sulfonamide] | 2.58 ± 0.11 | 68.59 ± 4.81 |  | 
17 | 8.17 | O=S(=O)(Nc1cnc(Oc2cnc3ccccc3c2)c(Cl)c1)c1ccc(F)cc1F [Example 34, N-(5-Chloro-6-(quinolin-3-yloxy)pyridin-3-yl)-2,4-difluorobenzenesulfonamide] | 1.7 ± 0.08 | 43.59 ± 4.77 |  | 57.2 ± 19.1
18 |  | O=S(=O)(Nc1cnc(Oc2cnc3ccccc3c2)c(Cl)c1)c1ccc(F)cc1 [Example 35, N-(5-Chloro-6-(quinolin-3-yloxy)pyridin-3-yl)-4-fluorobenzenesulfonamide] | 2.44 ± 0.08 | 62.36 ± 3.51 |  | 
19 |  | O=S(=O)(c1ccc(Cl)cc1Cl)N(c1cnc(Oc2cnc3ccccc3c2)c(Cl)c1)S(=O)(=O)c1ccc(Cl)cc1Cl [Example 45, 2,4-Dichloro-N-[(2,4-dichlorophenyl)sulfonyl]-N-[5-chloro-6-(quinolin-3-yloxy)pyridin-3-yl]-benzenesulfonamide] | 2.13 ± 0.04 | 59.5 ± 2.26 |  | 
20 |  | O=S(=O)(Nc1cnc(Oc2ccc3ncccc3c2)c(Cl)c1)c1ccc(F)cc1F [Example 48, N-(5-Chloro-6-(quinolin-6-yloxy)pyridin-3-yl)-2,4-difluorobenzenesulfonamide] | 1.82 ± 0.13 | 36.7 ± 7.3 |  | 
